1 compound from patent US20230355631A1, “PROCESS FOR IMPROVING FLUIDITY OF PALBOCICLIB ISETHIONATE AND COMPOSITION” (NANJING GRITPHARMA CO., LTD., priority 2020, published 2023) can be followed below.

The nature of this data set: Properties of the granules / powder mix (angle of repose, bulk density, tap density, compression index). In kind it is physicochemical. To be noted: bulk drug powder. As to the method: With reference to Example 7, 5 batches of samples 7-1, 7-2, 7-3, 7-4, and 7-5 were prepared by a capsule filling process after granules were prepared by dry granulation at different press roll pressures (a GL5-50 dry granulation machine with a 2.0 mm primary granulation sieve and a 1.0 mm secondary granulation sieve was used), and properties of the granules (including angle of repose, bulk density, and tap density), content uniformity of finished products, and other indexes were investigated separately. […] According to requirements of pharmacopoeia, the release rate of the samples is equal to or greater than 80% (Q) of the labelled amount in a medium with a pH of 1.2 within 30 minutes. Thus, the release rate of the various batches of samples (7-1, 7-2, 7-3, 7-4, and 7-5) was investigated in a medium with a pH of 1.2.
The palbociclib isethionate has poor fluidity and is a loose powder. […] Especially when capsules are filled in commercial batches in a large scale, the problem of difficulty in automatic filling at high speed will be caused due to poor fluidity of the powder. Moreover, the filled capsules have great differences in loading capacity, so that the content uniformity and the product quality are unqualified. […]

Regarding `CC(=O)c1c(C)c2cnc(Nc3ccc(N4CCNCC4)cn3)nc2n(C2CCCC2)c1=O.O=S(=O)(O)CCO` [palbociclib isethionate], the “Fluidity of the raw material” value was “poor fluidity”.
